One series has as its system Phytophthora Infestans. Put plainly: whole plant or invertebrate. In kind it is in vivo. The conditions noted are these: in Solanum lycopersicum, foliar, read-out: disease control.
Series [1] deals with Monographella Nivalis(Microdochium Nivale). Put plainly: Monographella nivalis (Microdochium nivale) / liquid culture (foot rot cereals). In kind it is cell-based. The conditions noted are these: PDB potato dextrose broth, 24° C., 4-5 days after application, read-out: disease control (inhibition of growth, photometrically). Put shortly:
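Conidia from cryogenic storage mixed into potato dextrose broth, added to compound pre-dispensed from DMSO solution. Incubated at 24° C.; growth inhibition read photometrically 4-5 days after application.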

The subject of the next series is Pythium Ultimum. Put plainly: Pythium ultimum / liquid culture (seedling damping off). In kind it is cell-based. The conditions noted are these: Globisporangium ultimum, potato dextrose broth, 24° C., 2-3 days after application, read-out: disease control (inhibition of growth, photometrically).
A further series concerns Fusarium Culmorum. The experiment in a line: microbe, parasite or virus in culture. In kind it is cell-based. The conditions noted are these: read-out: disease control (inhibition of growth, photometrically).
For another series, the system named is Gaeumannomyces Graminis. The experiment in a line: Gaeumannomyces graminis / liquid culture (take-all of cereals). It is filed as cell-based. As to conditions: PDB potato dextrose broth, 24° C., 4-5 days after application, read-out: disease control (inhibition of growth, photometrically). The gist of the method:
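Mycelial fragments from cryogenic storage mixed into potato dextrose broth and added to test compound in DMSO. Incubated at 24° C; growth inhibition read photometrically 4-5 days after application.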

The subject of another series is Sclerotinia Sclerotiorum. The experiment in a line: Sclerotinia sclerotiorum / liquid culture (cottony rot). It is filed as cell-based. The conditions noted are these: PDB potato dextrose broth, 24° C., 3-4 days after application, read-out: disease control (inhibition of growth, visually). Put shortly:
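Mycelial fragments from fresh liquid culture in potato dextrose broth added to test compounds in DMSO. Incubated at 24° C; growth inhibition scored visually 3-4 days after application.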

Series [2] has as its system Phaeosphaeria Nodorum (Septoria Nodorum). Put plainly: Phaeosphaeria nodorum (Septoria nodorum) / wheat / leaf disc preventative (glume blotch). It is filed as in vivo. The conditions noted are these: Parastagonospora nodorum, foliar, wheat leaf segments cv Kanzler, inoculated 2 days after application, assessed 5-7 days after application, read-out: disease control. Put shortly: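 Wheat cv Kanzler leaf discs on agar were sprayed with formulated compound, then inoculated with spores 2 days later. Incubation at 20° C, 75% RH, 12/12 h light/dark; percent disease control versus untreated assessed 5-7 days after application.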

In series [3] the test system is Mycosphaerella Graminicola(Septoria Tritici). Put plainly: Mycosphaerella graminicola (Septoria tritici) / liquid culture (Septoria blotch). In kind it is cell-based. The conditions noted are these: Zymoseptoria tritici, PDB potato dextrose broth, 24° C., 4-5 days after application, read-out: disease control (inhibition of growth, photometrically). The gist of the method: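 Cryostored conidia mixed into potato dextrose broth and added to compound dispensed from DMSO solution. Incubation at 24 °C; growth inhibition read photometrically 4-5 days after application.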

The subject of series [4] is Mycosphaerella Arachidis(Cercospora Arachidicola). Put plainly: Mycosphaerella arachidis (Cercospora arachidicola) / liquid culture (early leaf spot). In kind it is cell-based. The conditions noted are these: PDB potato dextrose broth, 24° C., 4-5 days after application, read-out: disease control (inhibition of growth, photometrically). The gist of the method: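 Cryo-stored conidia in potato dextrose broth were added to compound in DMSO in microtiter plates. After incubation at 24 °C, growth inhibition was measured photometrically 4-5 days after application.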

Series [5] relates to Glomerella Lagenarium(Colletotrichum Ladenarium). The experiment in a line: Glomerella lagenarium (Colletotrichum lagenarium) / liquid culture (anthracnose). In kind it is cell-based. As to conditions: PDB potato dextrose broth, 24° C., 3-4 days after application, read-out: disease control (inhibition of growth, photometrically). Put shortly: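 Cryostored conidia were suspended in potato dextrose broth and added to compound in DMSO. Cultures were incubated at 24 °C. Growth inhibition was measured photometrically 3–4 days after application.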

The test system of series [6] is Botryotinia Fuckeliana(Botrytis Cinerea). Put plainly: Botryotinia fuckeliana (Botrytis cinerea) / liquid culture (gray mould). It is filed as cell-based. The conditions noted are these: Vogels broth, 24° C., 3-4 days after application, read-out: disease control (inhibition of growth, photometrically). As to the method: 9 Botryotinia Fuckeliana(Botrytis Cinerea)/Liquid Culture (Gray Mould) Conidia of the fungus from cryogenic storage were directly mixed into nutrient broth (Vogels broth). After placing a DMSO solution of test compound into a 96-well microtiter plate, the nutrient broth containing the fungal spores was added. The test plates were incubated at 24° C. and the inhibition of growth was determined photometrically 3-4 days after application.

Series [7] has as its system Thanatephorus Cucumeris(Rhizoctonia Solani). The experiment in a line: Thanatephorus cucumeris (Rhizoctonia solani) / liquid culture (foot rot, damping-off). In kind it is cell-based. The conditions noted are these: PDB potato dextrose broth, 24° C., 3-4 days after application, read-out: disease control (inhibition of growth, photometrically). Put shortly:
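Mycelial fragments in potato dextrose broth exposed to compound (DMSO solution) at 200 ppm. Incubation at 24° C.; growth inhibition measured photometrically 3-4 days after application.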

The next series concerns Plasmopara Viticola. Put plainly: whole plant or invertebrate. In kind it is in vivo. As to conditions: foliar, read-out: disease control.
The test system of series [8] is Puccinia Recondita f. sp. Tritici. The experiment in a line: Puccinia recondita f. sp. tritici / wheat / leaf disc preventative (brown rust). In kind it is in vivo. The conditions noted are these: foliar, wheat leaf segments cv Kanzler, inoculated 1 day after application, assessed 7-9 days after application, read-out: disease control. The gist of the method:
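Wheat cv Kanzler leaf segments on agar were sprayed with formulated compound diluted in water, then inoculated with spore suspension 1 day later. Incubation was at 19 °C, 75% RH, 12/12 h light/dark. Percent disease control versus untreated was scored 7-9 days after application.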

As usually defined, the inhibition is how much of the control response was suppressed. For orientation: melting point means the temperature, or range, at which the solid turns liquid. In the case of `OB1OCc2cc(F)c(-c3cnoc3)cc21` [Compound 11], the melting point lay within 230 to 232 °C. For the same compound, the pest or weed control at 200 ppm in the series with Phytophthora Infestans was ≥ 80%. Further, the inhibition at 20 ppm in series [1] was ≥ 80%. The inhibition at 20 ppm in the series with Pythium Ultimum was ≥ 80%. For the same compound, the inhibition at 20 ppm with Fusarium Culmorum was ≥ 80%. Further, in the series on Gaeumannomyces Graminis, the inhibition at 20 ppm is ≥ 80%. Moreover, the inhibition at 20 ppm in the series on Sclerotinia Sclerotiorum was ≥ 80%. Moreover, in [2], the pest or weed control at 200 ppm is ≥ 80%. The inhibition at 20 ppm in series [3] is ≥ 80%. In addition, the inhibition at 20 ppm in series [4] was ≥ 80%.

For `OB1OCc2cc(F)c(-c3ncno3)cc21` [Compound 29], the melting point was in the range of 204 to 206 °C. In addition, in the series on Phytophthora Infestans, the pest or weed control at 200 ppm is ≥ 80%. The inhibition at 20 ppm in series [1] is ≥ 80%. Further, in the series with Pythium Ultimum, the inhibition at 20 ppm was ≥ 80%. The inhibition at 20 ppm in [5] is ≥ 80%. For the same compound, the inhibition at 20 ppm in the series on Fusarium Culmorum is ≥ 80%. Besides, in the series with Gaeumannomyces Graminis, the inhibition at 20 ppm is ≥ 80%. In addition, in series [6], the inhibition at 20 ppm was ≥ 80%. Moreover, in the series on Sclerotinia Sclerotiorum, the inhibition at 20 ppm was ≥ 80%. For the same compound, the pest or weed control at 200 ppm in series [2] was ≥ 80%. Further, the inhibition at 20 ppm in [3] is ≥ 80%. Besides, the inhibition at 20 ppm in series [7] is ≥ 80%. Besides, in [4], the inhibition at 20 ppm was ≥ 80%.

The compound `Cc1noc(-c2cc3c(cc2F)COB3O)n1` [Compound 30, 5-(5-fluoro-1-hydroxy-3H-2,1-benzoxaborol-6-yl)-3-methyl-1,2,4-oxadiazole] returned a melting point of 200 to 202 °C. The pest or weed control at 200 ppm in the series with Phytophthora Infestans was ≥ 80%. The inhibition at 20 ppm in series [1] was ≥ 80%. In addition, the inhibition at 20 ppm with Pythium Ultimum is ≥ 80%. The inhibition at 20 ppm in series [5] is ≥ 80%. The inhibition at 20 ppm in the series with Gaeumannomyces Graminis is ≥ 80%. The inhibition at 20 ppm in [6] was ≥ 80%. The inhibition at 20 ppm with Sclerotinia Sclerotiorum was ≥ 80%. The inhibition at 20 ppm in [3] is ≥ 80%. In addition, the inhibition at 20 ppm in series [4] was ≥ 80%.

As to `N#Cc1cscc1-c1cc2c(cc1Cl)COB2O` [Compound 42], the pest or weed control at 200 ppm (in the series with Phytophthora Infestans; in [2]; in the series on Plasmopara Viticola) was ≥ 80% throughout. The inhibition at 20 ppm (in series [1]; in the series on Pythium Ultimum; in series [5]; with Fusarium Culmorum; with Gaeumannomyces Graminis; with Sclerotinia Sclerotiorum) was ≥ 80% throughout. In addition, the inhibition at 20 ppm in series [3] and in [4] was ≥ 80% throughout.

As to `Cc1cc(-c2cc3c(cc2F)COB3O)c(C#N)o1` [Compound 56], the pest or weed control at 200 ppm (in the series on Phytophthora Infestans; in series [8]; with Plasmopara Viticola) was ≥ 80% throughout. The inhibition at 20 ppm (in [1]; in the series with Pythium Ultimum; with Gaeumannomyces Graminis; in series [7]; in series [4]) was ≥ 80% each time.

Compound `OB1OCc2cc(Cl)c(-c3nnco3)cc21` [Compound 94] registered a melting point of 202 to 204 °C. In the series on Phytophthora Infestans, the pest or weed control at 200 ppm is ≥ 80%. For the same compound, the inhibition at 20 ppm in the series on Pythium Ultimum is ≥ 80%. Besides, the inhibition at 20 ppm in series [5] is ≥ 80%. Further, in the series on Gaeumannomyces Graminis, the inhibition at 20 ppm is ≥ 80%. Besides, the inhibition at 20 ppm in the series with Sclerotinia Sclerotiorum was ≥ 80%. Moreover, the pest or weed control at 200 ppm in series [2] is ≥ 80%. Also, the inhibition at 20 ppm in series [3] was ≥ 80%. For the same compound, the inhibition at 20 ppm in series [4] was ≥ 80%.

Take `OB1OCc2cc(F)c(-c3ncon3)cc21` [Compound 97]: the melting point fell in the range of 226 to 228 °C. For the same compound, the pest or weed control at 200 ppm in the series on Phytophthora Infestans is ≥ 80%. Also, the inhibition at 20 ppm in [1] is ≥ 80%. For the same compound, the inhibition at 20 ppm with Pythium Ultimum was ≥ 80%. In addition, in series [5], the inhibition at 20 ppm is ≥ 80%. The inhibition at 20 ppm with Fusarium Culmorum was ≥ 80%. Moreover, in the series with Gaeumannomyces Graminis, the inhibition at 20 ppm was ≥ 80%. Also, in series [6], the inhibition at 20 ppm is ≥ 80%. Further, in the series with Sclerotinia Sclerotiorum, the inhibition at 20 ppm was ≥ 80%. Further, the pest or weed control at 200 ppm in [2] is ≥ 80%. Also, the inhibition at 20 ppm in [3] is ≥ 80%. The inhibition at 20 ppm in [7] is ≥ 80%. Also, the inhibition at 20 ppm in [4] was ≥ 80%.

The values are drawn from patent publication US10314308B2, “Microbiocidal benzoxaboroles” (SYNGENTA PARTICIPATIONS AG, priority 2015, dated 2019).
